Test results taken from patent publication US4704384A, “Aziridinyl quinone antitumor agents” (priority 1981, dated 1987).
Values joined by “and” are separate entries in the source; they are usually repeats but may differ in a detail not shown here. Equal entries are not always repeated. “Also recorded” adds a separate entry of the source. Where two headings read alike, the source gives them in different places.

Tests used:
lymphoid leukemia L1210 [1] = conditions: for ILS / OD / T-C / animals alive per 6: Table VIII; for survivors, IP L1210: parentheses, per 6
B16 melanocarcinoma = type: in vivo, murine; conditions: for OD: QD1-9, Table IX; for ILS: QD1-9, at OD, Table IX
ependymoblastoma = type: in vivo, murine; conditions: for OD: QD1-5, Table X; for ILS: QD1-5, at OD
Source text: ^c Ic tumor implantation, ip QD15 treatment schedule.
(§1) A third IC tumor model, the ependymoblastoma system, was also studied. This system requires intracerebral implantation of a solid tumor fragment while the IC L1210 and IC P388 systems utilize IC inoculated ascites tumor fluid. All three use IP drug treatment however. […] Cures (survivors from the group of six mice on the last day of the experiment) are indicated.

[2] = system: lymphocytic leukemia P388; type: in vivo, murine; conditions: for OD: QD1-9, Table IX; for ILS: QD1-9, at OD; for ILS / animals alive per 6: Table IX; for animals alive per 6: QD1-9, day 30, at OD; for survivors, P388: Table XI, parentheses, per 6
lymphoid leukemia L1210 [3] = type: in vivo, murine; conditions: for OD: QD1-9, Table X; for ILS: QD1-9, at OD
Source text: as §1

SMILES	activity in IP L1210 (lymphoid leukemia L1210 [1])	ILS (lymphoid leukemia L1210 [1]; Day 1 only, at OD)	OD (lymphoid leukemia L1210 [1]; Q4D (day 1,5,9))	ILS (lymphoid leukemia L1210 [1]; Q4D, at OD)	OD (lymphoid leukemia L1210 [1]; QD1-9 (9 injections))	ILS (lymphoid leukemia L1210 [1]; QD1-9, at OD)	OD (B16 melanocarcinoma)	ILS (B16 melanocarcinoma)	OD (ependymoblastoma)	ILS (ependymoblastoma; Table X)	OD [2]	ILS [2]	animals alive per 6 [2]	survivors, P388 [2]	OD (lymphoid leukemia L1210 [1]; Day 1 only (1 injection)) [mg/kg/injection]	further results
CCCNC1=C(N2CC2)C(=O)C(NCCC)=C(N2CC2)C1=O [Compound 36]	significant reduction in activity	17%	6.2 mg/kg/injection	28% and 25%	6.2 mg/kg/injection	48% and 43%	5.0 mg/kg/injection	36% and 32%	5.0 mg/kg/injection and 10.0 mg/kg/injection	259% and 143%	6.0 mg/kg/injection	151% and 108%	2	2	–	activity in ependymoblastoma (ependymoblastoma): highly active; also recorded: very active; also recorded: most active; animals alive per 6 (ependymoblastoma; QD1-5, day 60, at OD, Table X): 2 and 1; survivors, EM (ependymoblastoma; Table XI, parentheses, per 6): 2
O=C1C(N2CCOCC2)=C(N2CC2)C(=O)C(N2CCOCC2)=C1N1CC1 [Compound 46, 2,5-DIAZIRIDINYL-3,6-DIMORPHOLINO-1,4-BENZOQUINONE]	–	-14%	6.0 mg/kg/injection	49% and 44%	–	64% and 32%	–	24% and 17%	–	134% and 82%	0.5 mg/kg/injection and 0.7 mg/kg/injection	52% and 48%	–	–	–	T-C (lymphoid leukemia L1210 [1]; Q4D, day 5, at OD): -2.6 grams
O=C1C(N2CCCCC2)=C(N2CC2)C(=O)C(N2CCCCC2)=C1N1CC1 [Compound 44]	–	16% and 8%	–	26% and 22%	10.0 mg/kg/injection	28%	5.0 mg/kg/injection and 2.5 mg/kg/injection	–	–	68% and 46%	5.0 mg/kg/injection and 10.0 mg/kg/injection	46% and 77%	–	–	–	T-C (lymphoid leukemia L1210 [1]; QD1-9, day 5, at OD): -2.2 grams
CC(=O)NC1=C(N2CC2(C)C)C(=O)C(NC(C)=O)=C(N2CC2(C)C)C1=O [Compound 21]	abolished activity	–	–	–	–	–	–	–	–	–	–	–	–	–	–	–
O=C1C(N2CCN(CCO)CC2)=C(N2CC2)C(=O)C(N2CCN(CCO)CC2)=C1N1CC1 [Compound 47]	produced cures; also recorded: superior	–	4.0 mg/kg/injection and 2.0 mg/kg/injection	180%	1.0 mg/kg/injection and 0.5 mg/kg/injection	–	–	22%	1.0 mg/kg/injection	75%	0.5 mg/kg/injection and 1.0 mg/kg/injection	143%	3 and 6	3	4.0	animals alive per 6 (lymphoid leukemia L1210 [1]; Q4D, day 30, at OD): 3 and 4; T-C (lymphoid leukemia L1210 [1]; QD1-9, day 5, at OD): -1.7 grams; animals alive per 6 (lymphoid leukemia L1210 [1]; QD1-9, day 30, at OD): 1; ILS (%) IP L1210 (lymphoid leukemia L1210 [1]; Table XI, outstanding activity): 180%; survivors, IP L1210 (lymphoid leukemia L1210 [1]; Table XI): 3; activity in IC L1210 (lymphoid leukemia L1210 [3]): marginal IC L1210 activity; OD (lymphoid leukemia L1210 [3]): 2.0 mg/kg/injection and 1.5 mg/kg/injection; ILS (lymphoid leukemia L1210 [3]; Table X): 43% and 41%; T-C (lymphoid leukemia L1210 [3]; QD1-9, day 5, at OD, Table X): -1.4 grams; activity in IP P388 [2]: very active producing multiple cures
CCOC(=O)NC1=C(NCCCl)C(=O)C(NC(=O)OCC)=C(NCCCl)C1=O [Compound 12]	activity was abolished	–	–	–	–	–	–	–	–	–	–	–	–	–	–	–
CCCCNC1=C(N2CC2)C(=O)C(NCCCC)=C(N2CC2)C1=O [Compound 37]	significant reduction in activity	11% and 5%	12.5 mg/kg/injection and 8.2 mg/kg/injection	44% and 25%	10.0 mg/kg/injection and 5.0 mg/kg/injection	36% and 30%	10.0 mg/kg/injection and 5.0 mg/kg/injection	–	6.0 mg/kg/injection and 3.0 mg/kg/injection	93%	5.0 mg/kg/injection and 10.0 mg/kg/injection	64% and 49%	–	–	10.0	–
O=C1C(NCCO)=C(N2CC2)C(=O)C(NCCO)=C1N1CC1 [Compound 38]	Excellent activity; also recorded: produced cures; also recorded: superior	175% and 119%	0.7 mg/kg/injection	131% and 70%	0.7 mg/kg/injection	205% and 134%	0.4 mg/kg/injection	61% and 51%	1.5 mg/kg/injection	83% and 70%	0.4 mg/kg/injection	175% and 160%	3 and 2	3	1.5	animals alive per 6 (lymphoid leukemia L1210 [1]; Day 1 only, day 30, at OD): 5 and 3; animals alive per 6 (lymphoid leukemia L1210 [1]; QD1-9, day 30, at OD): 2 and 3; survivors, IP L1210 (lymphoid leukemia L1210 [1]; Table XI): 2; maximum ILS (lymphoid leukemia L1210 [1]; chronic schedule): > 200%; activity in B16 melanoma (B16 melanocarcinoma): reproducibly active; activity in IC L1210 (lymphoid leukemia L1210 [3]): marginal IC L1210 activity; OD (lymphoid leukemia L1210 [3]): 0.75 mg/kg/injection; ILS (lymphoid leukemia L1210 [3]; Table X): 57% and 48%; activity in IP P388 [2]: very active producing multiple cures
CCCSC1=C(N2CC2)C(=O)C(SCCC)=C(N2CC2)C1=O [Compound 6]	inactive	–	–	–	–	–	–	–	–	–	–	–	–	–	–	–
